{
  "source": "paper PMC8247900",
  "about": "(Clinical Pharmacology and Therapeutics, 2021)",
  "key": {"[1]": {"assay_type": "in vivo, human"}, "[2]": {"test_system": "CYP2B6 mRNA", "assay": "Induction of CYP mRNA expression in HepaRG cells", "assay_type": "cell-based, human", "settings": "72 hours, 300 µM 4‐MAA, 10 µM rifampicin; for CYP2B6 mRNA induction in 5‐F cells: 5‐F control HepaRG cells, 1 µM CITCO"}, "[3]": {"test_system": "CYP2C19 mRNA", "assay": "Induction of CYP mRNA expression in HepaRG cells", "assay_type": "cell-based, human", "settings": "72 hours, 300 µM 4‐MAA, 10 µM rifampicin; for CYP2C19 mRNA induction in 5‐F cells: 5‐F control HepaRG cells, 1 µM CITCO"}, "[4]": {"test_system": "CYP1A2 mRNA", "assay": "Induction of CYP mRNA expression in HepaRG cells", "assay_type": "cell-based, human", "settings": "72 hours"}, "[5]": {"test_system": "CYP2C9 mRNA", "assay": "Induction of CYP mRNA expression in HepaRG cells", "assay_type": "cell-based, human", "settings": "5‐F control HepaRG cells, 72 hours; 300 µM 4‐MAA, 1 µM CITCO, 10 µM rifampicin"}, "[6]": {"test_system": "CYP3A4 mRNA"}, "[7]": {"test_system": "CYP1A2", "assay_type": "in vivo, human", "settings": "male, human, plasma, oral"}, "[8]": {"biological_target": "T1, CYP1A2 (Homo sapiens, UniProt P05177)", "T1 sequence (P05177 1-516)": "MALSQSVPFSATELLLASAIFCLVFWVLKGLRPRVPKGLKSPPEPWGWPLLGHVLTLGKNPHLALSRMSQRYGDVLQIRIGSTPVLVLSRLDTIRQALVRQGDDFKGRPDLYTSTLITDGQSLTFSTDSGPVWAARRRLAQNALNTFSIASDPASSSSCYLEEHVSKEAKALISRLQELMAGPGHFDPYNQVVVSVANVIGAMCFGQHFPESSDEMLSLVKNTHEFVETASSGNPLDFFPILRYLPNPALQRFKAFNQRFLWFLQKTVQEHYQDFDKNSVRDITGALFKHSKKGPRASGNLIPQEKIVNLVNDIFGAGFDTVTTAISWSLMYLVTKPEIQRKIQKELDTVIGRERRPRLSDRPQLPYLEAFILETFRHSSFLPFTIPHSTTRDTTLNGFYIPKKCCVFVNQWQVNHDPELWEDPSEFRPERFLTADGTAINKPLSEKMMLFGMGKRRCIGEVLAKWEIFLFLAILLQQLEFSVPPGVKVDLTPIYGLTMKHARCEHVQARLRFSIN", "assay": "Clinical phenotyping cocktail study: effect of metamizole on CYP1A2", "assay_type": "in vivo"}, "[9]": {"test_system": "CYP2B6", "assay": "Clinical phenotyping cocktail study: effect of metamizole on CYP2B6", "assay_type": "in vivo, human", "settings": "3 g of metamizole per day for 1 week"}, "[10]": {"test_system": "CYP2C9", "assay": "Clinical phenotyping cocktail study: effect of metamizole on CYP2C9", "assay_type": "in vivo, human", "settings": "3 g of metamizole per day for 1 week"}, "[11]": {"test_system": "CYP2C19", "assay": "Clinical phenotyping cocktail study: effect of metamizole on CYP2C19", "assay_type": "in vivo, human", "settings": "3 g of metamizole per day for 1 week"}, "[12]": {"test_system": "CYP2D6", "assay": "Clinical phenotyping cocktail study: effect of metamizole on CYP2D6", "assay_type": "in vivo, human"}, "[13]": {"test_system": "CYP3A4", "assay": "Clinical phenotyping cocktail study: effect of metamizole on CYP3A4", "assay_type": "in vivo, human", "settings": "3 g of metamizole per day for 1 week"}, "[14]": {"test_system": "CYP2B6", "settings": "healthy volunteers, 1.5 g metamizole per day for 4 days; cited from earlier work"}, "[15]": {"settings": "retrospective study, patients treated with metamizole; cited from earlier work"}, "[16]": {"settings": "patients after organ transplantation; cited from earlier work"}, "[17]": {"test_system": "CYP2D6 mRNA", "assay": "Induction of CYP mRNA expression in HepaRG cells", "assay_type": "cell-based, human", "settings": "differentiated HepaRG cells, 72 hours; 300 µM 4‐MAA; 2 mM metformin"}, "[18]": {"settings": "differentiated HepaRG cells, vs DMSO control"}, "[19]": {"settings": "clinical study, 3 g of metamizole per day for 1 week"}},
  "data": [
    {"smiles": "CC(C(=O)O)c1ccc(-c2ccccc2)c(F)c1", "note": "(centres unmarked) [Flurbiprofen, flurbiprofen]", "values": [
      {"measurement": "AUC(0-inf)", "setting": "[1]; male, human, plasma, oral", "value": 10000, "unit": "ng·h/mL"}
    ]},
    {"smiles": "CO[C@H]1/C=C/O[C@@]2(C)Oc3c(C)c(O)c4c(O)c(c(/C=N/N5CCN(C)CC5)c(O)c4c3C2=O)NC(=O)/C(C)=C\\C=C\\[C@H](C)[C@H](O)[C@@H](C)[C@@H](O)[C@@H](C)[C@H](OC(C)=O)[C@@H]1C", "note": "[rifampicin]", "values": [
      {"measurement": "CYP2B6 mRNA induction in 5‐F cells", "setting": "[2]", "value": "not significant"},
      {"measurement": "increase of CYP2B6 mRNA content", "setting": "[2]; [18]", "value": 4.3, "unit": "fold"},
      {"measurement": "CYP2C19 mRNA induction in 5‐F cells", "setting": "[3]", "value": "increased"},
      {"measurement": "increase of CYP2C19 mRNA content", "setting": "[3]; [18]", "value": 2.2, "unit": "fold"}
    ]},
    {"smiles": "Cc1ncc2n1-c1ccc(Cl)cc1C(c1ccccc1F)=NC2", "note": "[Midazolam, midazolam]", "values": [
      {"measurement": "AUC(0-inf)", "setting": "[1]; male, human, plasma, oral", "value": 19.7, "unit": "ng·h/mL"},
      {"measurement": "half-life", "setting": "[1]; male, human, plasma, oral", "value": 2.44, "unit": "h"}
    ]},
    {"smiles": "Clc1ccc(-c2nc3sccn3c2C=NOCc2ccc(Cl)c(Cl)c2)cc1", "note": "[CITCO, 6‐(4‐chlorophenyl)imidazo[2,1‐b][1,3]thiazole‐5‐carbaldehyde O‐(3,4‐dichlorobenzyl)oxime]", "values": [
      {"measurement": "CYP1A2 mRNA induction in 5‐F cells", "setting": "[4]; 5‐F control HepaRG cells, 1 µM CITCO", "value": "induced"},
      {"measurement": "CYP1A2 mRNA induction in HepaRG cells lacking CAR", "setting": "[4]; CAR‐knockout HepaRG cells, 1 µM CITCO", "value": "still induced"},
      {"measurement": "CYP2B6 mRNA induction in 5‐F cells", "setting": "[2]", "value": "induced"},
      {"measurement": "CYP2C9 mRNA induction in 5‐F cells", "setting": "[5]", "value": "not significant"},
      {"measurement": "CYP2C19 mRNA induction in 5‐F cells", "setting": "[3]", "value": "induced"},
      {"measurement": "CYP3A4 mRNA induction in 5‐F cells", "setting": "[6]", "value": "not significant"}
    ]},
    {"smiles": "CC(C(=O)O)c1ccc(-c2ccc(O)cc2)c(F)c1", "note": "(centres unmarked) [4′‐hydroxyflurbiprofen]", "values": [
      {"measurement": "AUC(0-inf)", "setting": "[1]; male, human, plasma, oral", "value": 726, "unit": "ng·h/mL"}
    ]},
    {"smiles": "COCCc1ccc(OCC(O)CNC(C)C)cc1", "note": "(centres unmarked) [Metoprolol, metoprolol]", "values": [
      {"measurement": "AUC(0-inf)", "setting": "[1]; male, human, plasma, oral", "value": 41.4, "unit": "ng·h/mL"}
    ]},
    {"smiles": "Cn1c(=O)[nH]c2ncn(C)c2c1=O", "note": "[Paraxanthine, paraxanthine]", "values": [
      {"measurement": "AUC(0-inf)", "setting": "[1]; male, human, plasma, oral", "value": 4680, "unit": "ng·h/mL"},
      {"measurement": "AUC(0-inf)", "setting": "[7]", "value": 4620, "unit": "ng·h/mL"}
    ]},
    {"smiles": "Cc1c(N(C)CS(=O)(=O)O)c(=O)n(-c2ccccc2)n1C", "note": "[metamizole, Metamizole]", "values": [
      {"measurement": "effect on CYP1A2 activity", "setting": "[8]; [19]", "value": "weakly inhibited"},
      {"measurement": "change in caffeine:paraxanthine MR", "setting": "[8]; metamizole 3 × 1 g per day for 7 days, P = 0.0024", "value": "significant increase"},
      {"measurement": "effect on CYP2B6 activity", "setting": "[9]", "value": "moderate induction"},
      {"measurement": "effect on CYP2C9 activity", "setting": "[10]", "value": "weakly induced"},
      {"measurement": "effect on CYP2C19 activity", "setting": "[11]", "value": "moderately"},
      {"measurement": "effect on CYP2D6 activity", "setting": "[12]; [19]", "value": "did not alter"},
      {"measurement": "change in the MR of metoprolol", "setting": "[12]; metamizole 3 × 1 g per day for 7 days", "value": "no significant change"},
      {"measurement": "effect on CYP3A4 activity", "setting": "[13]", "value": "moderate induction"},
      {"measurement": "increase in the bupropion hydroxylase activity", "setting": "[14]", "value": 2.1, "unit": "fold"},
      {"measurement": "lower sertraline plasma concentrations than patients without metamizole", "setting": "[15]", "value": 67, "unit": "%"},
      {"measurement": "effect on cyclosporine blood concentrations", "setting": "[16]", "value": "decreased"}
    ]},
    {"smiles": "COc1ccc2[nH]c([S+]([O-])Cc3ncc(C)c(OC)c3C)nc2c1", "note": "(centres unmarked) [Omeprazole, omeprazole]", "values": [
      {"measurement": "AUC(0-inf)", "setting": "[1]; male, human, plasma, oral", "value": 187, "unit": "ng·h/mL"}
    ]},
    {"smiles": "O=C1Nc2ccc(Cl)cc2[C@@](C#CC2CC2)(C(F)(F)F)O1", "note": "[Efavirenz, efavirenz]", "values": [
      {"measurement": "Basal metabolic ratio in CYP2B6 NM", "setting": "[1]; basal state, CYP2B6 *1/*1 carriers (normal metabolizers, four subjects)", "value": 96.3},
      {"measurement": "Basal metabolic ratio in CYP2B6 IM", "setting": "[1]; basal state, CYP2B6 *1/*6 carriers (intermediate metabolizers, eight subjects)", "value": 87.5},
      {"measurement": "AUC(0-inf)", "setting": "[1]; male, human, plasma, oral", "value": 3980, "unit": "ng·h/mL"}
    ]},
    {"smiles": "Cn1c(=O)c2c(ncn2C)n(C)c1=O", "note": "[Caffeine, caffeine]", "values": [
      {"measurement": "AUC(0-inf)", "setting": "[1]; male, human, plasma, oral", "value": 7210, "unit": "ng·h/mL"}
    ]},
    {"smiles": "CN(C)C(=N)N=C(N)N", "note": "[metformin]", "values": [
      {"measurement": "effect on CYP1A2 mRNA", "setting": "[4]; differentiated HepaRG cells, 300 µM 4‐MAA, 2 mM metformin", "value": "suppressed"},
      {"measurement": "effect on CYP2D6 mRNA", "setting": "[17]", "value": "not significantly affected"}
    ]}
  ]
}
